Measurements taken from PubChem BioAssay AID330 (DTP/NCI, 2004).
Values joined by “and” are separate entries in the source; they are usually repeats but may differ in a detail not shown here. Identical values can stand only once. Inconclusive results and toxic doses are left out. The calls were made as follows: active = survival T/C of 150% or more; inactive = T/C below 125% in these data.

Tested on: P388 leukemia ip, CD2F1 mice, survival T/C
Test: NCI In Vivo Anticancer Drug Screen. Data for tumor model P388 Leukemia (intraperitoneal) in CD2F1 (CDF1) mice
Conditions: endpoint: median survival time, higher = longer survival
How it was run: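 Mice carrying the transplanted tumor received test compound or vehicle. Survival was recorded in each group, and the value is the treated-group measurement divided by that of the vehicle-treated control group.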

[1] = dose: 50.0 mg/kg/injection, schedule: Q01DX005 (ip), vehicle: saline with Tween-80
[2] = dose: 50.0 mg/kg/injection, schedule: Q01DX009 (ip), vehicle: saline
[3] = dose: 100.0 mg/kg/injection, schedule: Q01DX009 (ip), vehicle: saline
[4] = dose: 200.0 mg/kg/injection, schedule: Q01DX009 (ip), vehicle: saline
[5] = dose: 100.0 mg/kg/injection, schedule: Q01DX005 (ip), vehicle: saline with Tween-80
[6] = dose: 200.0 mg/kg/injection, schedule: Q01DX005 (ip), vehicle: saline with Tween-80
[7] = dose: 12.5 mg/kg/injection, schedule: Q01DX009 (ip), vehicle: saline
[8] = dose: 25.0 mg/kg/injection, schedule: Q01DX009 (ip), vehicle: saline
[9] = dose: 50.0 mg/kg/injection, schedule: Q01DX005 (ip), vehicle: Klucel (hydroxypropylcellulose) (HPC)
[10] = dose: 100.0 mg/kg/injection, schedule: Q01DX005 (ip), vehicle: Klucel (hydroxypropylcellulose) (HPC)
[11] = dose: 200.0 mg/kg/injection, schedule: Q01DX005 (ip), vehicle: Klucel (hydroxypropylcellulose) (HPC)
[12] = dose: 60.0 mg/kg/injection, schedule: Q01DX005 (ip), vehicle: Klucel (hydroxypropylcellulose) (HPC)
[13] = dose: 120.0 mg/kg/injection, schedule: Q01DX005 (ip), vehicle: Klucel (hydroxypropylcellulose) (HPC)
[14] = dose: 240.0 mg/kg/injection, schedule: Q01DX005 (ip), vehicle: Klucel (hydroxypropylcellulose) (HPC)

Measured: T/C

O=C(NC(=S)c1ccc(Br)cc1)NS(=O)(=O)c1ccccc1
inactive: dose: 100.0 mg/kg/injection, schedule: Q01DX001 (ip), vehicle: saline with Tween-80 107 % of control | dose: 200.0 mg/kg/injection, schedule: Q01DX001 (ip), vehicle: saline with Tween-80 102 % of control | dose: 400.0 mg/kg/injection, schedule: Q01DX001 (ip), vehicle: saline with Tween-80 102 % of control

CCCCN(CCCC)CC(C)(C)C(O)c1ccc(OC)c2ccccc12 (stereo not given)
inactive: dose: 12.5 mg/kg/injection, schedule: Q01DX005 (ip), vehicle: saline with Tween-80 106 % of control | dose: 25.0 mg/kg/injection, schedule: Q01DX005 (ip), vehicle: saline with Tween-80 106 % of control | [1] 101 % of control and 103 % of control

O=C1c2ccc(Cl)cc2NC(O)c2cccn21 (stereo not given)
inactive: dose: 0.1 mg/kg/injection, schedule: Q01DX005 (ip), vehicle: water 99 % of control | dose: 0.2 mg/kg/injection, schedule: Q01DX005 (ip), vehicle: water 98 % of control | dose: 0.4 mg/kg/injection, schedule: Q01DX005 (ip), vehicle: water 98 % of control | dose: 0.8 mg/kg/injection, schedule: Q01DX005 (ip), vehicle: water 100 % of control | dose: 1.6 mg/kg/injection, schedule: Q01DX005 (ip), vehicle: water 98 % of control | dose: 5.0 mg/kg/injection, schedule: Q01DX005 (ip), vehicle: distilled water + Tween-80 95 % of control | dose: 10.0 mg/kg/injection, schedule: Q01DX005 (ip), vehicle: distilled water + Tween-80 99 % of control | dose: 20.0 mg/kg/injection, schedule: Q01DX005 (ip), vehicle: distilled water + Tween-80 100 % of control | dose: 40.0 mg/kg/injection, schedule: Q01DX005 (ip), vehicle: distilled water + Tween-80 93 % of control | dose: 80.0 mg/kg/injection, schedule: Q01DX005 (ip), vehicle: distilled water + Tween-80 98 % of control

O=C1CCC(CCl)(C(=O)O)O1 (stereo not given)
inactive: [2] 106 % of control | [3] 106 % of control | [4] 91 % of control

COc1ccc(C2=NCC2(Cl)Cl)cc1
inactive: dose: 12.5 mg/kg/injection, schedule: Q01DX009 (ip), vehicle: other 97 % of control | dose: 25.0 mg/kg/injection, schedule: Q01DX009 (ip), vehicle: other 95 % of control | dose: 50.0 mg/kg/injection, schedule: Q01DX009 (ip), vehicle: other 105 % of control | dose: 100.0 mg/kg/injection, schedule: Q01DX009 (ip), vehicle: other 96 % of control | dose: 200.0 mg/kg/injection, schedule: Q01DX009 (ip), vehicle: other 99 % of control

COc1cccc2c1C(=O)c1c(O)c3c(c(O)c1C2=O)C[C@@](O)(C(C)=O)C[C@@H]3OC1CC(N=CCCCC=NC2CC(O[C@H]3C[C@](O)(C(C)=O)Cc4c(O)c5c(c(O)c43)C(=O)c3c(OC)cccc3C5=O)OC(C)C2O)C(O)C(C)O1 (stereo not given in full)
inactive: dose: 0.5 mg/kg/injection, schedule: Q04DX003 (ip), vehicle: distilled water + Tween-80 104 % of control | dose: 1.0 mg/kg/injection, schedule: Q04DX003 (ip), vehicle: distilled water + Tween-80 110 % of control | dose: 2.0 mg/kg/injection, schedule: Q04DX003 (ip), vehicle: distilled water + Tween-80 123 % of control | dose: 16.0 mg/kg/injection, schedule: Q04DX003 (ip), vehicle: distilled water + Tween-80 122 % of control

C=CCOP1(OCC=C)=NP(OCC=C)(OCC=C)=NP(OCC=C)(OCC=C)=N1
inactive: [1] 96 % of control | [5] 100 % of control | [6] 102 % of control

CCCCC(NC(=O)CC)C(=O)O (stereo not given)
inactive: dose: 6.25 mg/kg/injection, schedule: Q01DX009 (ip), vehicle: saline 107 % of control | [7] 94 % of control | [8] 98 % of control | [4] 100 % of control

COc1cc(-c2nn(CN3CCOCC3)c(=S)o2)cc(OC)c1OC
inactive: [9] 96 % of control | [10] 97 % of control | [11] 99 % of control

CC1C2CCN(C)C1Cc1ccc(O)cc12 (stereo not given)
inactive: [1] 94 % of control | [5] 92 % of control | [6] 100 % of control

O=C1c2cc(F)ccc2OC2CCON12 (stereo not given)
inactive: dose: 100.0 mg/kg/injection, schedule: Q01DX001 (ip), vehicle: Klucel (hydroxypropylcellulose) (HPC) 97 % of control | dose: 200.0 mg/kg/injection, schedule: Q01DX001 (ip), vehicle: Klucel (hydroxypropylcellulose) (HPC) 97 % of control | dose: 400.0 mg/kg/injection, schedule: Q01DX001 (ip), vehicle: Klucel (hydroxypropylcellulose) (HPC) 103 % of control

COc1c(-c2ccccc2)oc2c(ccc3occc32)c1=O
inactive: dose: 12.5 mg/kg/injection, schedule: Q01DX005 (ip), vehicle: Klucel (hydroxypropylcellulose) (HPC) 104 % of control | dose: 25.0 mg/kg/injection, schedule: Q01DX005 (ip), vehicle: Klucel (hydroxypropylcellulose) (HPC) 99 % of control | [9] 99 % of control | [10] 87 % of control | [11] 88 % of control

Cc1c(C)c(C)c2c(c1C)CCC2O (stereo not given)
inactive: dose: 12.5 mg/kg/injection, schedule: Q01DX009 (ip), vehicle: saline with Tween-80 102 % of control and 100 % of control | dose: 25.0 mg/kg/injection, schedule: Q01DX009 (ip), vehicle: saline with Tween-80 105 % of control and 102 % of control | dose: 50.0 mg/kg/injection, schedule: Q01DX009 (ip), vehicle: saline with Tween-80 105 % of control and 100 % of control

Cc1ccc(S(=O)(=O)NC(=O)c2cnc(N(C)C)s2)cc1
inactive: [9] 104 % of control | [10] 101 % of control | [11] 107 % of control

CCN1C=C(C(=O)OC)C(N)=C(C#N)/C1=C\C=C(/C#N)C(=O)OC
inactive: dose: 100.0 mg/kg/injection, schedule: Q04DX002 (ip), vehicle: Klucel (hydroxypropylcellulose) (HPC) 92 % of control | dose: 200.0 mg/kg/injection, schedule: Q04DX002 (ip), vehicle: Klucel (hydroxypropylcellulose) (HPC) 101 % of control | dose: 400.0 mg/kg/injection, schedule: Q04DX002 (ip), vehicle: Klucel (hydroxypropylcellulose) (HPC) 89 % of control

COc1cc2cc3cc(-c4ccc(Cl)cc4)c(N4CCCCC4)nc3nc2cc1OC
inactive: dose: 3.75 mg/kg/injection, schedule: Q01DX005 (ip), vehicle: saline with Tween-80 92 % of control | dose: 7.5 mg/kg/injection, schedule: Q01DX005 (ip), vehicle: saline with Tween-80 87 % of control | dose: 30.0 mg/kg/injection, schedule: Q01DX005 (ip), vehicle: saline with Tween-80 86 % of control | dose: 240.0 mg/kg/injection, schedule: Q01DX005 (ip), vehicle: saline with Tween-80 91 % of control

CCOc1c(N=Nc2ccccc2C)c(C)nn1C(=S)SC
inactive: dose: 60.0 mg/kg/injection, schedule: Q01DX005 (ip), vehicle: Klucel + Tween-80 95 % of control | dose: 120.0 mg/kg/injection, schedule: Q01DX005 (ip), vehicle: Klucel + Tween-80 92 % of control

CN=C/C(C(C)=O)=C(\C)O
inactive: [7] 103 % of control | [8] 105 % of control | [2] 101 % of control and 106 % of control | [3] 112 % of control and 91 % of control

O=C(O)COc1cc2c(cc1Cc1ccc3c(c1)OCO3)OCO2
inactive: [9] 99 % of control | [10] 96 % of control | [11] 97 % of control

CN1C(=O)/C(=C2\SC(=O)N(CN3CCCCC3)C2=O)c2cc(Br)ccc21
inactive: [12] 90 % of control | [13] 90 % of control | [14] 95 % of control

CCCCCCCCCCCCSSC(=S)OC(C)C
inactive: dose: 50.0 mg/kg/injection, schedule: Q01DX009 (ip), vehicle: saline + Tween-80 + alcohol 100 % of control | dose: 100.0 mg/kg/injection, schedule: Q01DX009 (ip), vehicle: saline + Tween-80 + alcohol 116 % of control | dose: 200.0 mg/kg/injection, schedule: Q01DX009 (ip), vehicle: saline + Tween-80 + alcohol 122 % of control | dose: 400.0 mg/kg/injection, schedule: Q01DX009 (ip), vehicle: saline + Tween-80 + alcohol 119 % of control

CC(C)(C)SS(=O)(=O)C(C)(C)C
inactive: [12] 103 % of control | [13] 106 % of control | [14] 105 % of control

CC(=O)N=C1C=C(NC(C)=O)C(=O)c2ccccc21
inactive: dose: 6.25 mg/kg/injection, schedule: Q01DX009 (ip), vehicle: Klucel (hydroxypropylcellulose) (HPC) 103 % of control | dose: 12.5 mg/kg/injection, schedule: Q01DX009 (ip), vehicle: Klucel (hydroxypropylcellulose) (HPC) 99 % of control and 100 % of control and 116 % of control | dose: 25.0 mg/kg/injection, schedule: Q01DX009 (ip), vehicle: Klucel (hydroxypropylcellulose) (HPC) 100 % of control and 105 % of control and 124 % of control | dose: 50.0 mg/kg/injection, schedule: Q01DX009 (ip), vehicle: Klucel (hydroxypropylcellulose) (HPC) 112 % of control
